Experimental data as given in ChEMBL document CHEMBL1123600, “N6-(2,2-diphenylethyl)adenosine, a novel adenosine receptor agonist with antipsychotic-like activity” (J Med Chem, 1987).

Legend:
Adenosine receptor A1 = molecular target: T1, Adenosine receptor A1 (Rattus norvegicus, UniProt P25099)
T1 sequence (P25099 whole entry): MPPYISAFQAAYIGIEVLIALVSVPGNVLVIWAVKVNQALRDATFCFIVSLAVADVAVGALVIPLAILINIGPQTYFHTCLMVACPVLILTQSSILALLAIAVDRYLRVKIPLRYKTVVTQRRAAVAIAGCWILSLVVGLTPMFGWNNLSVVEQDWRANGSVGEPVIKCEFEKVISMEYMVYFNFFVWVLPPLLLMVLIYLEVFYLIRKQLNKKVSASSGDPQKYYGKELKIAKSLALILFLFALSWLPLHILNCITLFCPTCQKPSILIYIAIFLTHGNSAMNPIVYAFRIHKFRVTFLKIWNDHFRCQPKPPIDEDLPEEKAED
Description: Binding affinity to adenosine A1 receptor in rat whole brain membranes by [3H]N6-cyclohexyladenosine displacement.

Mus musculus [1] = experiment: Effect on Motor activity in mouse following i.p. administration.; format: functional; conditions: ip
Mus musculus [2] = experiment: Effect on Ataxia in mouse following i.p. administration.; format: functional; conditions: ip
Rattus norvegicus [3] = experiment: Effect on Ataxia(ATX) in rat was measured as ED50 by perorally administration of compound.; format: functional; conditions: po
Rattus norvegicus [4] = species: Rattus norvegicus; experiment: Effect on Sidman conditioned avoidance in rat.; format: functional
Adenosine A2 receptor = Adenosine A2 receptor (Rattus norvegicus, UniProt P29276+P30543)
Description: Binding affinity to A2 adenosine receptor in rat striatal membranes by [3H]NECA (1-(6-amino-9H-purin-9-yl)-1-deoxy-N-ethyl-beta-D-ribofuranuronamide) displacement.

Rattus norvegicus [5] = experiment: Effect on Motor activity(MA) in rat was measured as ED50 by perorally administration of compound.; format: functional; conditions: po

Structure (SMILES)	Ki (Adenosine receptor A1) [nM]	ED50 (Mus musculus [1]) [mg/kg]	ED50 (Mus musculus [2]) [mg/kg]	ED50 (Rattus norvegicus [3]) [mg/kg]	ED50 (Rattus norvegicus [4]) [mg/kg]	Ki (Adenosine A2 receptor) [nM]	ED50 (Rattus norvegicus [5]) [mg/kg]
OC[C@H]1O[C@@H](n2cnc3c(NCCc4ccccc4)ncnc32)[C@H](O)[C@@H]1O	12.7	15	> 100				
OC[C@H]1O[C@@H](n2cnc3c(NCC(c4ccccc4)c4ccccc4)ncnc32)[C@H](O)[C@@H]1O	6.8	1.3	145	31	2.5	25	2.2
OC[C@H]1O[C@@H](n2cnc3c(NCCCCc4ccccc4)ncnc32)[C@H](O)[C@@H]1O	15.9	32	> 100			1230	
OC[C@H]1O[C@@H](n2cnc3c(NCCCc4ccccc4)ncnc32)[C@H](O)[C@@H]1O	23	19	> 100			420	
OC[C@H]1OC(n2cnc3c(NCCCCC(c4ccccc4)c4ccccc4)ncnc32)[C@H](O)[C@@H]1O (stereo partly specified)	146	30	> 100			2200	
CC(C)(CNc1ncnc2c1ncn2C1O[C@H](CO)[C@@H](O)[C@H]1O)c1ccccc1 (stereo partly specified)	16.2	6.7	30			320	
OC[C@H]1OC(n2cnc3c(NCC(c4ccccc4)(c4ccccc4)c4ccccc4)ncnc32)[C@H](O)[C@@H]1O (stereo partly specified)	14300	80	> 100			26000	
OC[C@H]1OC(n2cnc3c(NC(c4ccccc4)c4ccccc4)ncnc32)[C@H](O)[C@@H]1O (stereo partly specified)	480	80	> 100			3800	
OC[C@H]1OC(n2cnc3c(NCCC(c4ccccc4)c4ccccc4)ncnc32)[C@H](O)[C@@H]1O (stereo partly specified)	79	33	> 100			290	
CC(CNc1ncnc2c1ncn2C1O[C@H](CO)[C@@H](O)[C@H]1O)(c1ccccc1)c1ccccc1 (stereo partly specified)	37	7	> 100			30	
OC[C@H]1OC(n2cnc3c(NCCCC(c4ccccc4)c4ccccc4)ncnc32)[C@H](O)[C@@H]1O (stereo partly specified)	290	32	> 100			4700	
CC(CNc1ncnc2c1ncn2[C@@H]1O[C@H](CO)[C@@H](O)[C@H]1O)c1ccccc1 (mixture of isomers)	2.4	0.5	7			98	
C[C@@H](Cc1ccccc1)Nc1ncnc2c1ncn2[C@@H]1OC(CO)[C@@H](O)[C@H]1O (single isomer, unassigned)		16	75				
C[C@H](Cc1ccccc1)Nc1ncnc2c1ncn2[C@@H]1O[C@H](CO)[C@@H](O)[C@H]1O [(R)-PIA]		0.8	2				
O=C(CCCN1CCC(O)(c2ccc(Cl)cc2)CC1)c1ccc(F)cc1 [HALOPERIDOL]		0.27	12	> 1	0.3		0.24
OC[C@H]1O[C@@H](n2cnc3c(NCc4ccccc4)ncnc32)[C@H](O)[C@@H]1O [N6-BENZYLADENOSINE]		22	> 100			280	
OC[C@H]1O[C@@H](n2cnc3c(Nc4ccccc4)ncnc32)[C@H](O)[C@@H]1O [N6-PHENYLADENOSINE]	4.6	25	30			660	
CSc1ccc2c(c1)N(CCC1CCCCN1C)c1ccccc1S2 (stereo unspecified) [THIORIDAZINE]		3.3	13	> 30	19.7		13.3
